Assays:
C. parvum [1] = format: cell-based, Cryptosporidium parvum; conditions: compound at EC90; for Invasion Assay: Mean % Inhibition (parasites), Average: average of replicates; for Invasion Assay: Mean % Inhibition (parasites), Replicate 1a: single biological replicate 1; for Invasion Assay: Mean % Inhibition (parasites), Replicate 2a: single biological replicate 2
C. parvum [2] = assay: DNA replication assay (EdU incorporation); format: cell-based, Cryptosporidium parvum; conditions: compound at EC90; for DNA Synthesis Assay: Mean % Inhibition of EdU-labeling (normalized to parasite numbers), Average: average of replicates; for DNA Synthesis Assay: Mean % Inhibition of EdU-labeling (normalized to parasite numbers), Replicate 1: single replicate 1; for DNA Synthesis Assay: Mean % Inhibition of EdU-labeling (normalized to parasite numbers), Replicate 2: single replicate 2; for DNA Synthesis Assay: Mean % Inhibition of EdU-labeling (normalized to parasite numbers), Replicate 3: single replicate 3; for DNA Synthesis Assay: Mean % Inhibition of EdU-labeling (normalized to parasite numbers), Replicate 4: single replicate 4; for DNA Synthesis Assay: Mean % Inhibition of EdU-labeling (normalized to parasite numbers), Replicate 5: single replicate 5
[3] = test system: C. parvum DMC1 expression; assay: Sexual differentiation assay (DMC1 expression); format: cell-based, Cryptosporidium parvum; conditions: compound at asexual EC90, 48-72 h; for Asexual to sexual differentiation: Mean % DMC1 inhibition (normalized to host nuclei), Average: average of replicates; for Asexual to sexual differentiation: Mean % DMC1 inhibition (normalized to host nuclei), Replicate 1a: single replicate 1; for Asexual to sexual differentiation: Mean % DMC1 inhibition (normalized to host nuclei), Replicate 2a: single replicate 2
How it was run: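 Compounds applied at their previously determined asexual-assay EC90, and % inhibition of DMC1 expression reported. Readout: 4% paraformaldehyde fixation, immunostaining with mAb 1H10G7 plus fluorescein-lectin and Hoechst, tiled 20× imaging in 384-well format, ImageJ analysis counting lectin-positive then DMC1-positive parasites.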

C. parvum [4] = assay: Egress, motility, reinvasion assay (PV ratio); conditions: compound at EC90; for Egress and Reinvasion Assay: Mean PV ratios (19.5h:6h), Average: average of replicates; for Egress and Reinvasion Assay: Mean PV ratios (19.5h:6h), Replicate 1a: single replicate 1; for Egress and Reinvasion Assay: Mean PV ratios (19.5h:6h), Replicate 2a: single replicate 2
Procedure: For quantification of parasitophorous vacuoles over time, HCT-8 cells were grown to greater than 90% confluence in 384-well plates and infected with 11,000 oocysts after triggering excystation.

Structure (SMILES) | Invasion Assay: Mean % Inhibition (parasites), Average (C. parvum [1]) | Invasion Assay: Mean % Inhibition (parasites), Replicate 1a (C. parvum [1]) | Invasion Assay: Mean % Inhibition (parasites), Replicate 2a (C. parvum [1]) | DNA Synthesis Assay: Mean % Inhibition of EdU-labeling (normalized to parasite numbers), Average (C. parvum [2]) | DNA Synthesis Assay: Mean % Inhibition of EdU-labeling (normalized to parasite numbers), Replicate 1 (C. parvum [2]) | DNA Synthesis Assay: Mean % Inhibition of EdU-labeling (normalized to parasite numbers), Replicate 2 (C. parvum [2]) | DNA Synthesis Assay: Mean % Inhibition of EdU-labeling (normalized to parasite numbers), Replicate 3 (C. parvum [2]) | DNA Synthesis Assay: Mean % Inhibition of EdU-labeling (normalized to parasite numbers), Replicate 4 (C. parvum [2]) | DNA Synthesis Assay: Mean % Inhibition of EdU-labeling (normalized to parasite numbers), Replicate 5 (C. parvum [2]) | Asexual to sexual differentiation: Mean % DMC1 inhibition (normalized to host nuclei), Average [3] | Asexual to sexual differentiation: Mean % DMC1 inhibition (normalized to host nuclei), Replicate 1a [3] | Asexual to sexual differentiation: Mean % DMC1 inhibition (normalized to host nuclei), Replicate 2a [3] | Egress and Reinvasion Assay: Mean PV ratios (19.5h:6h), Average (C. parvum [4]) | Egress and Reinvasion Assay: Mean PV ratios (19.5h:6h), Replicate 1a (C. parvum [4]) | Egress and Reinvasion Assay: Mean PV ratios (19.5h:6h), Replicate 2a (C. parvum [4]) | Egress and Reinvasion Assay: Mean PV ratios (19.5h:6h), Replicate 3a (C. parvum [4]; single replicate 3) | Egress and Reinvasion Assay: Mean PV ratios (19.5h:6h), Replicate 4a (C. parvum [4]; single replicate 4)
CC(C)/N=c1\cc2n(-c3ccc(Cl)cc3)c3ccccc3nc-2cc1Nc1ccc(Cl)cc1 [Clofazimine] | 66.45% | 65% | 68% | 88.58% | 99.92% | 100.00% | 87.22% | 73.51% | 82.28% | 89.18% | 91.44% | 86.93% | 0.77 | 1.03 | 1.03 | 0.51 | 0.49
Cc1cccc(-n2ncc3c(=O)[nH]c(-n4nc(C)cc4NC(=O)C4CCCC4)nc32)c1 [C-5] | 13.07% | 31% | -4.39% | 98.17% | 96.33% | 100.00% | – | – | – | 52.89% | 39.80% | 65.99% | 0.31 | 0.20 | 0.42 | – | –
C[C@H]1CCC[C@H](C[C@H]2Cc3cc(O)cc(O)c3C(=O)O2)O1 [Cladosporin] | -6.64% | 5.41% | -19% | 93.15% | 89.75% | 94.02% | 89.08% | 93.50% | 99.40% | 94.16% | 91.92% | 96.40% | 0.68 | 0.52 | 0.83 | – | –
Cc1cccc(-n2ncc3c(=O)[nH]c(-n4nc(C)cc4NC(=O)C4CC4)nc32)c1 [C-4] | 9.11% | 19% | -1.12% | 99.18% | 98.37% | 100.00% | – | – | – | 64.12% | 60.65% | 67.59% | 0.48 | 0.49 | 0.48 | – | –

Source: article PMC6478823, “A suite of phenotypic assays to ensure pipeline diversity when prioritizing drug-like Cryptosporidium growth inhibitors” (Nature Communications, 2019)
